According to patent publication US4710578A, “Isothiuronium salts” (Peremartoni Vegyipari Vallalat, priority 1984, dated 1987):
Counter-ions that a name gives are not always drawn. Like-named read-outs stand apart in the source and are kept apart here.

How the values were obtained:
tumor cells = assay: Testing of antitumor effect (overall)
NK-ly-ascites lymphoma = NK-ly-ascites lymphoma in vivo; design: species or system CFLP male mice
[1] = tested on: neutrophylic granulocytes and limphocytes; settings: mouse, in vivo, po
[2] = tested on: neutrophilic granulocytes, lymphocytes and macrophages; assay: Preliminary rapid test: immunostimulant effect; type: in vivo, CFLP male mice; settings: oral, one-tenth of LD50; 24 hours
[3] = in vivo, 24 h
NK-yl ascites tumor = assay: Combinations with known cytostatic agents in NK-ly ascites tumor; type: in vivo, CFLP mice; settings: with cyclophosphamide, carnomustine, degranol, dibromo dulcitol or dibromo mannitol
human lymphocytes [4] = assay: ADCC, 51Cr release from chicken erythrocytes; type: cell-based; settings: for Cytotoxicity index, ADCC: 5:1, 4 hours, n=10, ± S.E.
Experimental: (§1) Lymphocytes were separated on Ficoll-Uromiro (Boyum 1968) gradient from the venal blood of healthy donors and patients suffering from malignant lymphoma and metastatizing solid tumours, respectively. When selecting the patients belonging to the latter group, the decreased ADCC and NK activity was taken into consideration. The phagocytes were removed by treatment with iron powder and a magnet.
ADCC was determined according to the method of Perlmann and Perlmann (1970) with minor modifications (Lang et al, 1981). Chicken erythrocytes labelled with 10^5 51 Cr and coated with anti-chicken erythrocyte rabbit-serum were incubated with the lymphocytes for 4 hours at 37° C. The reaction having been stopped the activity of the supernatant of the centrifuged cells was determined in a gamma-counter. The rate of chrome-release was expressed as the cytotoxicity index (CI %). This value was calculated as described in one of our earlier publications (Lang et al., 1980)--(see Table I).
Effect on ADDC. Cytotoxicity index /%/.
Ratio of effector cells; aimed cells = 5:1. Incubation time 4 hours.

[5] = tested on: human polymorphonuclear leucocytes; assay: Direct /random/ migration of human polymorphonuclear leucocytes on agarose microdrops; type: cell-based; settings: seven healthy controls, ± S.E.M.
Experimental: Spontaneous (random) migration of leukocytes was measured on agarose microdrops according to the method of McCoy et al (1977) by carrying out some minor modifications (Kalmar and Gergely, 1982).
[…] agarose drops (0.2%) were placed on migration plates (Greiner, German Federal Republic). TC 199 liquid nutrient medium was added and the plates were air-tightly closed. After 24 hours the migration area were measured under a stereomicroscope. The migration area were expressed in mm^2.

human lymphocytes [6] = assay: NK activity, 51Cr release from K-562 tumor cells; type: cell-based; settings: for Cytotoxicity index, NK activity: 50:1, 4 hours, ± S.E.
Experimental: as §1
NK activity was determined by the method of Jondal and Pross (1975) by using minor modifications (Lang et al, 1981). K-562 tumor cells labelled by ^51 Cr were incubated with effector cells in a TC 199 liquid nutrient medium comprising 10% of decomplemented calf serum. The reaction having been stopped the radioactivity of the superntant of the centrifuged cells (chrome release) was counted in a gamma-counter. The killing of the tumor cells (cytotoxicity index %) was expressed as the difference of the test release and spontaneous release.
Ratio of effector cells: aimed cells = 50:1.
Incubation time 4 hours.

human lymphocytes [7] = assay: Mitogen-induced blastos transformation (PHA, Con A); type: cell-based
Experimental: Lymphocytes were cultivated in a TC 199 liquid nutrient medium completed by 10% decomplemented calf serum, antibiotics and […] HEPES (Serva). 200 μl of a cell suspension comprising 2.10^5 lymphocytes were placed on a microplate (manufacturer: Sterilin Great Britain); five parallels were carried out each.
2 and 10 μg/ml, respectively of Phytohaemagglutinine (Leucoagglutinine; manufacturer Pharmacie Sweden) and 25 μg/ml of Concanavalin A (Carbiochem) were added to the cultures; the above values relate to final concentration. The cultures were cultivated at 37° C. for 72 hours. Eight hours before the termination of the end of the cultivating period 0.5 μCi ^3 H thymidine (Chemapol. Czechoslovakia) was added to the samples. Incubation was stopped by freezing the cultures. After melting the samples were filtered on an automatic harvester (Dynatech). The radioactivity of the samples was measured in a scintillation counter. The activity was expressed as c.p.m. (Tables IV and V).

[8] = Decreased ADCC, 6,7 × 10^-8 mole
[9] = Decreased ADCC, 6,7 × 10^-9 mole
[10] = Decreased ADCC, 6,7 × 10^-10 mole

SMILES: C=C(C)CSC(=NC1CCCCC1)NC(=N)N [Example 38, N-aminoiminomethyl-N'-cyclohexyl-S-methallyl-isothiuronium chloride]
- Antitumor effect (tumor cells): outstanding antitumor effect

SMILES: C=C(C)CSC(=NC(C)C)NC(=N)N [Example 36, N-aminoiminomethyl-N'-isopropyl-S-methallyl-isothiuronium chloride]
- Antitumor effect (tumor cells): outstanding antitumor effect

SMILES: C=CCSC(=NC1CCCCC1)NC(=N)N [Example 22, N-Aminoiminomethyl-N'-Cyclohexyl-S-Allyl-Isothiuronium Chloride]
- LD50 at 24 h (in vivo; ip): 65 ± 5.1 mg/kg
- LD50 at 24 h (in vivo; po): 450 ± 51 mg/kg
- Activity against NK-ly-ascites tumor (NK-ly-ascites lymphoma; concentration below one-tenth of the LD50 value): active agains Nk-ly-ascites tumor in a concentration below one-tenth of the LD50 value
- Survival rate and lifetime (NK-ly-ascites lymphoma; dose-dependant): increase survival rate and lifetime in a dose-dependant manner
- Cytotoxical dose range (NK-ly-ascites lymphoma; mouse, in vivo): 40 to 160 mg/kg
- Toxic effect [1]: 0
- Immunostimulant effect [2]: weak
- LD50 ([3]; ip): 40 ± 6 mg/kg
- LD50 ([3]; po): 400 ± 38 mg/kg

SMILES: N=C(N)NC(=N)SCCCCl [Example 15, N-Aminoiminomethyl-S-(3-Chloropropyl)-Isothiuronium Bromide]
- Antitumor effect (tumor cells): outstanding antitumor effect
- LD50 at 24 h (in vivo; po): 1210 ± 180 mg/kg
- Toxic effect [1]: 0
- Immunostimulant effect [2]: weak
- Antitumor effect of combination vs cytostatic agent alone (NK-yl ascites tumor): the antitumor effect was strengthened
- Immunodepression of combination vs cytostatic agent alone (NK-yl ascites tumor): immunodepression decreased

SMILES: N=C(N)NC(=N)SCCCBr [Example 28, N-aminoiminomethyl-S-(3-bromo-propyl)-isothiuronium bromide]
- Antitumor effect (tumor cells): outstanding antitumor effect
- LD50 at 24 h (in vivo; po): 980 ± 640 mg/kg
- Toxic effect [1]: 0
- Immunostimulant effect [2]: weak
- Antitumor effect of combination vs cytostatic agent alone (NK-yl ascites tumor): the antitumor effect was strengthened
- Immunodepression of combination vs cytostatic agent alone (NK-yl ascites tumor): immunodepression decreased

SMILES: C=CCSC(=N)NC(=N)N [Compound A, N-/aminoiminomethyl/-S-allyl-isothiuronium salts (halogenides)]
- Change of ADCC cytotoxicity index vs control (human lymphocytes [4]; [8]): +264%
- Cytotoxicity index, ADCC (human lymphocytes [4]; [8]): 10.2 ± 2.7%
- Change of ADCC cytotoxicity index vs control (human lymphocytes [4]; [9]): +175%
- Cytotoxicity index, ADCC (human lymphocytes [4]; [9]): 7.7 ± 1.9%
- Change of ADCC cytotoxicity index vs control (human lymphocytes [4]; [10]): +126%
- Cytotoxicity index, ADCC (human lymphocytes [4]; [10]): 6.35 ± 1.7%
- Change of ADCC cytotoxicity index vs control (human lymphocytes [4]; Normal ADCC, 6,7 × 10^-8 mole): +62%
- Cytotoxicity index, ADCC (human lymphocytes [4]; Normal ADCC, 6,7 × 10^-8 mole): 68.2 ± 5.3%
- Change of ADCC cytotoxicity index vs control (human lymphocytes [4]; Normal ADCC, 6,7 × 10^-9 mole): +52%
- Cytotoxicity index, ADCC (human lymphocytes [4]; Normal ADCC, 6,7 × 10^-9 mole): 64 ± 5.8%
- Change of ADCC cytotoxicity index vs control (human lymphocytes [4]; Normal ADCC, 6,7 × 10^-10 mole): +39%
- Cytotoxicity index, ADCC (human lymphocytes [4]; Normal ADCC, 6,7 × 10^-10 mole): 58.5 ± 5.2%
- Migration area ([5]; 0.1 μg/ml, non significant): 10.51 mm^2
- Migration area ([5]; 1.0 μg/ml, p < 0.01): 12.25 ± 1.58 mm^2
- Migration area ([5]; 10.0 μg/ml, p < 0.01): 11.24 ± 1.69 mm^2
- Change of NK cytotoxicity index vs control (human lymphocytes [6]; Decreased NK, 6.7 × 10^-9 mole/ml): +68%
- Cytotoxicity index, NK activity (human lymphocytes [6]; Decreased NK, 6.7 × 10^-9 mole/ml, n=7): 25.3 ± 3.2%
- Change of NK cytotoxicity index vs control (human lymphocytes [6]; Decreased NK, 6.7 × 10^-10 mole/ml): +43%
- Cytotoxicity index, NK activity (human lymphocytes [6]; Decreased NK, 6.7 × 10^-10 mole/ml, n=7): 21.6 ± 3.0%
- Change of NK cytotoxicity index vs control (human lymphocytes [6]; Decreased NK, third dose column (printed 6.7 × 10^-31 8)): +113%
- Cytotoxicity index, NK activity (human lymphocytes [6]; Decreased NK, third dose column (printed 6.7 × 10^-31 8) mole/ml, n=7): 32.2 ± 3.2%
- Change of NK cytotoxicity index vs control (human lymphocytes [6]; Normal NK, 6.7 × 10^-9 mole/ml): +32%
- Cytotoxicity index, NK activity (human lymphocytes [6]; Normal NK, 6.7 × 10^-9 mole/ml, n=8): 43.4 ± 2.7%
- Change of NK cytotoxicity index vs control (human lymphocytes [6]; Normal NK, 6.7 × 10^-10 mole/ml): +25%
- Cytotoxicity index, NK activity (human lymphocytes [6]; Normal NK, 6.7 × 10^-10 mole/ml, n=8): 41 ± 2.9%
- Change of NK cytotoxicity index vs control (human lymphocytes [6]; Normal NK, third dose column (printed 6.7 × 10^-31 8)): +45%
- Cytotoxicity index, NK activity (human lymphocytes [6]; Normal NK, third dose column (printed 6.7 × 10^-31 8) mole/ml, n=8): 47.6 ± 1.4%
- Blastos transformation, average c.p.m. (human lymphocytes [7]; healthy controls n=6, Con A 25 μg/ml, dose 0.1 μg/ml): 10564 c.p.m.
- Blastos transformation, average c.p.m. (human lymphocytes [7]; healthy controls n=6, Con A 25 μg/ml, dose 1.0 μg/ml): 14089 c.p.m.
- Blastos transformation, average c.p.m. (human lymphocytes [7]; healthy controls n=6, Con A 25 μg/ml, dose 10.0 μg/ml): 17038 c.p.m.
- Blastos transformation, average c.p.m. (human lymphocytes [7]; healthy controls n=6, PHA 2 μg/ml, dose 0.1 μg/ml): 22233 c.p.m.
- Blastos transformation, average c.p.m. (human lymphocytes [7]; healthy controls n=6, PHA 2 μg/ml, dose 1.0 μg/ml): 23156 c.p.m.
- Blastos transformation, average c.p.m. (human lymphocytes [7]; healthy controls n=6, PHA 2 μg/ml, dose 10.0 μg/ml): 25404 c.p.m.
- Blastos transformation, average c.p.m. (human lymphocytes [7]; healthy controls n=6, PHA 10 μg/ml, dose 0.1 μg/ml): 29969 c.p.m.
- Blastos transformation, average c.p.m. (human lymphocytes [7]; healthy controls n=6, PHA 10 μg/ml, dose 1.0 μg/ml): 33826 c.p.m.
- Blastos transformation, average c.p.m. (human lymphocytes [7]; healthy controls n=6, PHA 10 μg/ml, dose 10.0 μg/ml): 33790 c.p.m.
- Blastos transformation, average c.p.m. (human lymphocytes [7]; patients of decreased reactivity /tumor and SLE/ n=6, Con A 25 μg/ml, dose 0.1 μg/ml): 1097 c.p.m.
- Blastos transformation, average c.p.m. (human lymphocytes [7]; patients of decreased reactivity /tumor and SLE/ n=6, Con A 25 μg/ml, dose 1.0 μg/ml): 935 c.p.m.
- Blastos transformation, average c.p.m. (human lymphocytes [7]; patients of decreased reactivity /tumor and SLE/ n=6, Con A 25 μg/ml, dose 10.0 μg/ml): 1023 ± 361 c.p.m.
- Blastos transformation, average c.p.m. (human lymphocytes [7]; patients of decreased reactivity /tumor and SLE/ n=6, PHA 2 μg/ml, dose 0.1 μg/ml): 2877 c.p.m.
- Blastos transformation, average c.p.m. (human lymphocytes [7]; patients of decreased reactivity /tumor and SLE/ n=6, PHA 2 μg/ml, dose 1.0 μg/ml): 4344 c.p.m.
- Blastos transformation, average c.p.m. (human lymphocytes [7]; patients of decreased reactivity /tumor and SLE/ n=6, PHA 2 μg/ml, dose 10.0 μg/ml): 4716 ± 1287 c.p.m.
- Blastos transformation, average c.p.m. (human lymphocytes [7]; patients of decreased reactivity /tumor and SLE/ n=6, PHA 10 μg/ml, dose 0.1 μg/ml): 5802 c.p.m.
- Blastos transformation, average c.p.m. (human lymphocytes [7]; patients of decreased reactivity /tumor and SLE/ n=6, PHA 10 μg/ml, dose 1.0 μg/ml): 6323 c.p.m.
- Blastos transformation, average c.p.m. (human lymphocytes [7]; patients of decreased reactivity /tumor and SLE/ n=6, PHA 10 μg/ml, dose 10.0 μg/ml): 6968 ± 1669 c.p.m.

SMILES: CC(C)N=C(NC(=N)N)SCCCCl [Example 35, N-aminoiminomethyl-N'-isopropyl-S-(3-chloropropyl)-isothiuronium bromide]
- Antitumor effect (tumor cells): outstanding antitumor effect

SMILES: C=CCSC(=NCC)NC(=N)N [Example 34, N-aminoiminomethyl-N'-ethyl-S-allyl-isothiuronium chloride]
- Antitumor effect (tumor cells): outstanding antitumor effect
- LD50 at 24 h (in vivo; ip): 84 ± 7.6 mg/kg
- LD50 at 24 h (in vivo; po): 780 ± 62 mg/kg
- Toxic effect [1]: 0
- Immunostimulant effect [2]: medium (Medium effect is observed if the increase of cell number or activity over the control amounts to 20%)
